For assay [1], the target named is T1, serotonin receptor 5-HT2 (Sus scrofa, UniProt P50129).
T1 construct: cortex membrane preparations of a pig; from tissue; host or cells: pig cortex
Kind of assay: radio ligand binding, pig cortex membrane preparations, [3H]Ketanserin with 10 μM Prazosin. As to conditions: p5-HT2; simultaneous incubation with 10 μM of Prazosin.

The target of assay [2] is T2, serotonin receptor 5-HT1A (Sus scrofa, UniProt A0A4X1UTF5).
T2 sequence (A0A4X1UTF5 1-422): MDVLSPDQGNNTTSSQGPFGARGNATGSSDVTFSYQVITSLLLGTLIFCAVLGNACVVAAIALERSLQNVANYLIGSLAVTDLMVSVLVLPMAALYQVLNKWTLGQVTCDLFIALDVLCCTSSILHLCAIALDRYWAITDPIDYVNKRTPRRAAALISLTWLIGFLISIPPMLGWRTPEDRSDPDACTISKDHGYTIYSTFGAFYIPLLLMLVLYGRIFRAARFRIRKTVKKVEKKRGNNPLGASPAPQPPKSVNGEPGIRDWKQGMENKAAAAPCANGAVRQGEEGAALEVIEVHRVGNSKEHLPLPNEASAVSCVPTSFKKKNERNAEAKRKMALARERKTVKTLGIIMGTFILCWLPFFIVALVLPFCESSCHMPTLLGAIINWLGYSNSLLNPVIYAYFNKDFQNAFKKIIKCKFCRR
As to the kind of experiment: radio ligand binding, pig cortex membrane preparations, [3H]8-OH-DPAT.

For assay [3], the target named is α1 receptors. As to the kind of experiment: competitive experiment with the α1 selective radio ligand [3H]Prazosin. As to conditions: read-out: Ki values α1 (footnote d); pα1; competitive experiment with [3H]Prazosin.
Assay [4] has as its target D3 receptor (Homo sapiens, UniProt P35462). Kind of assay: radio ligand binding assay, CHO cell membrane homogenates, [3H]Spiperon, D3. Set-up: expressed in transfected cells; host or cells: CHO cells (membrane homogenates). How it is done:
The biological activities of the compounds of the invention were determined in radio ligand binding assays.

The mark [5] stands for this setting: hD3, average of 2-9 experiments in triplicate, read-out: Ki-values D3.
Setting [6] is: read-out: Ki values 5-HT1A, p5-HT1A, [3H]8-OH-DPAT, average of 2 to 6 experiments.

Where two headings read alike, the source gives them in different places.

Chain of D3 receptor (P35462 whole entry): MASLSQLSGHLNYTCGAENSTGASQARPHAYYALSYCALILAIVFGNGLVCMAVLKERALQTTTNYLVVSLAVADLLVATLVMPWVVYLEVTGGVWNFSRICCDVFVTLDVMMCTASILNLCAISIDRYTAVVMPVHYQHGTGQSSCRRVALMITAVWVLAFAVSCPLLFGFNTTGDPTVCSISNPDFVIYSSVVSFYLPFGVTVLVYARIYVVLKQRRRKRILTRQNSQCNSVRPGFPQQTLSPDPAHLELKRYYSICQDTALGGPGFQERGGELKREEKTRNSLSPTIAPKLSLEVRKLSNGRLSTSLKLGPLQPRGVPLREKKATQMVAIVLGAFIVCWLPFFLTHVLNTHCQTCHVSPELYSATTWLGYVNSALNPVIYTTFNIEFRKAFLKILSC
T1 sequence (P50129 whole entry): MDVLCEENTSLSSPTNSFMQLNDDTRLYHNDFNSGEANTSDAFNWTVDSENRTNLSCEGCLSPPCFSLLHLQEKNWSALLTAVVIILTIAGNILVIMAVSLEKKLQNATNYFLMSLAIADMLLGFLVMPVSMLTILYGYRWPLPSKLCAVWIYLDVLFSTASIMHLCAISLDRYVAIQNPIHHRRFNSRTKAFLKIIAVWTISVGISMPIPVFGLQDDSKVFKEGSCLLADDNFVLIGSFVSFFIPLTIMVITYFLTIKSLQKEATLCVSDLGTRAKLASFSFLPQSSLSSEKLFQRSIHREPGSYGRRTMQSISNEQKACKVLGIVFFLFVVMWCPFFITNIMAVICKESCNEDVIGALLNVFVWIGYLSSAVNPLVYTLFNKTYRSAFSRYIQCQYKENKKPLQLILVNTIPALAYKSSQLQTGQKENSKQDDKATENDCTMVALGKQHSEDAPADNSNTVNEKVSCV

The Ki is the equilibrium dissociation constant of an inhibitor or competing ligand from its target. As to `COc1ccccc1N1CCN(CCCCNC(=O)c2cc3ccccc3[te]2)CC1` [Example 8, N-4-(4-(2-methoxyphenyl)piperazine-1-yl)butyl-2-benzo[b]tellurophenylcarbamide], the inhibition constant Ki in assay [1] was found to be 0.42 µM; in assay [2] it was 0.069 µM; in assay [3], 0.0035 µM; in assay [4], 0.00072 µM.
As for `COc1ccccc1N1CCN(CCCCNC(=O)c2cc3ccc(C#N)cc3s2)CC1` [Example 20, N-4-(4-(2-methoxyphenyl)piperazine-1-yl)butyl-6-cyano-2-benzo[b]thiophenylcarbamide], the inhibition constant Ki in assay [1] is 0.66 µM; in assay [2], 0.071 µM; in assay [3], 0.0083 µM; in assay [4] (setting [5]) it was 0.00023 to 0.00057 µM.
Consider `N#Cc1ccc2sc(C(=O)NCCCCN3CCN(c4cccc(Cl)c4Cl)CC3)cc2c1` [Example 19, N-4-(4-(2,3-dichlorophenyl)piperazine-1-yl)butyl-5-cyan-2-benzo[b]thiophenylcarbamide], for which the Ki came to 0.28 µM in assay [1], 0.19 µM in assay [2] (setting [6]) and 0.23 µM in assay [3].
Turning to `O=C(NCCCCN1CCN(c2cccc(Cl)c2Cl)CC1)c1cc2cc(Br)ccc2s1` [Example 23, N-4-(4-(2,3-dichlorophenyl)piperazine-1-yl)butyl-5-brom-2-benzo[b]thiophenylcarbamide], the Ki in assay [1] was 14 µM; in assay [2] (setting [6]), 0.43 µM; in assay [3] it was 0.32 µM.
On the same counts, the results for `N#Cc1ccc2cc(C(=O)NCCCCN3CCN(c4cccc(Cl)c4Cl)CC3)[nH]c2c1` [Example 15, N-4-(4-(2,3-dichlorophenyl)piperazine-1-yl)butyl-6-cyano-2-indolylcarbamide] are 0.32 µM, 0.39 µM and 2 µM.
On the same counts, the results for `O=C(NCCCCN1CCN(c2cccc(Cl)c2Cl)CC1)c1cc2cc(Br)ccc2[nH]1` [Example 14, N-4-(4-(2,3-dichlorophenyl)piperazine-1-yl)butyl-5-brom-2-indolylcarbamide] are 0.69 µM, 1.6 µM and 0.5 µM.
On the same counts, the results for `COc1ccccc1N1CCN(CCCCNC(=O)c2cc3cc(Br)ccc3s2)CC1` [Example 22, N-4-(4-(2-methoxyphenyl)piperazine-1-yl)butyl-5-brom-2-benzo[b]thiophenylcarbamide] are 0.76 µM, 0.18 µM and 0.0025 µM.
In the case of `O=C(NCCCCN1CCN(c2cccc(Cl)c2Cl)CC1)c1cc2ccccc2s1` [Example 2, N-4-(4-(2,3-dichlorophenyl)piperazine-1-yl)butyl-2-benzo[b]thiophenylcarbamide], the Ki in assay [3] is 0.37 µM.
As to `O=C(NCCCCN1CCN(c2cccc(Cl)c2Cl)CC1)c1cc2ccccc2[nH]1` [Example 10, N-4-(4-(2,3-dichlorophenyl)piperazine-1-yl)butyl-2-indolylcarbamide], the inhibition constant Ki in assay [2] is 0.61 µM; in assay [3] it was 0.22 µM; in assay [4] (setting [5]), 0.00023 to 0.00057 µM. Also, the “D3 affinity (in words)” value in assay [4] is “subnanomolar affinity”.
For the compound `N#Cc1ccc2[nH]c(C(=O)NCCCCN3CCN(c4cccc(Cl)c4Cl)CC3)cc2c1` [Example 25, N-4-(4-(2,3-dichlorophenyl)piperazine-1-yl)butyl-5-cyano-2-indolylcarbamide], the Ki came to 0.22 µM in assay [1], 0.19 µM in assay [2] (setting [6]) and 0.22 µM in assay [3].
`COc1ccccc1N1CCN(CCCCNC(=O)c2cc3cc(C#N)ccc3s2)CC1` [Example 18, N-4-(4-(2-methoxyphenyl)piperazine-1-yl)butyl-5-cyano-2-benzo[b]thiophenylcarbamide]: the Ki in assay [1] was found to be 0.58 µM; in assay [2], 0.054 µM; in assay [3], 0.0029 µM.
As for `O=C(NCCCCN1CCN(c2cccc(Cl)c2Cl)CC1)c1cc2ccccc2o1` [Example 4, N-4-(4-(2,3-dichlorophenyl)piperazine-1-yl)butyl-2-benzo[b]furanylcarbamide], the results for the Ki in assay [3] and in assay [4] (setting [5]) were 0.16 µM and 0.0012 µM, respectively.

Source of the values: patent US20050197343A1, “Utilization of heteroarene carboxamide as dopamine-d3 ligands for the treatment of cns diseases” (priority 2002, published 2005).
